Results: US9603834B2, “1,2- bis-sulfonamide derivatives as chemokine receptor modulators” (Allergan, Inc., priority 2010, dated 2017)

Biological target: CCR2 (Homo sapiens (Human), UniProt P41597)
Assay: Calcium activity on FLIPR Tetra in HEK-Gqi5 cells stably expressing CCR2
Format: cell-based
Conditions: FLIPR Tetra calcium assay
Method: HEK-Gqi5 cells stably expressing CCR2 were cultured in (DMEM high glucose, 10% FBS, 1% PSA, 400 μg/ml geneticin and 50 μg/ml hygromycin. Appropriate positive control chemokines (MCP-1, MIP1A or RANTES) was used as the positive control agonist for screening compound-induced calcium activity assayed on the FLIPR^Tetra. The drug plates were prepared in 384-well microplates using the EP3 and the MultiPROBE robotic liquid handling systems. Compounds were synthesized and tested for CCR2 activity.

Chain of CCR2 (P41597 whole entry, species assumed): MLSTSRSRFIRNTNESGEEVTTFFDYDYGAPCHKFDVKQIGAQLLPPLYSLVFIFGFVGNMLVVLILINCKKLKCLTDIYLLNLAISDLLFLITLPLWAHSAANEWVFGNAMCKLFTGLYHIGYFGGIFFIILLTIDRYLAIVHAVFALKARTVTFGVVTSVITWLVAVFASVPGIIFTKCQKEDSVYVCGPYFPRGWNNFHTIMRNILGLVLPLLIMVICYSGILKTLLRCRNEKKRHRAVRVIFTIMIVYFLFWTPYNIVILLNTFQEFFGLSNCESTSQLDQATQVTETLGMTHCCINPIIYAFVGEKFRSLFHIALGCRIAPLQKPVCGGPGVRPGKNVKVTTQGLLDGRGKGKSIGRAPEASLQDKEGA

Structure (SMILES) | CCR2 % Antagonism [%] | IC50 [nM]
Cn1cnc(S(=O)(=O)Nc2ccc(Cl)cc2NS(=O)(=O)c2cc3ccccc3o2)c1 [N-{2-[(1-benzofuran-2-ylsulfonyl)amino]-4-chlorophenyl}-1-methyl-1H-imidazole-4-sulfonamide] | 110 | 423
O=S(=O)(Nc1cc(Cl)c(Cl)cc1NS(=O)(=O)c1cccs1)c1ccc(Cl)c(Cl)c1 [N-(4,5-dichloro-2-{[(3,4-dichlorophenyl)sulfonyl]amino}phenyl)thiophene-2-sulfonamide] | 79 | 394
Cc1ccc(S(=O)(=O)Nc2cc(Cl)c(Cl)cc2NS(=O)(=O)c2cccs2)o1 [N-{4,5-dichloro-2-[(2-thienylsulfonyl)amino]phenyl}-5-methylfuran-2-sulfonamide] | 95 | 311
Cc1ccc(S(=O)(=O)Nc2ccc(Cl)cc2NS(=O)(=O)c2cc3ccccc3o2)s1 [N-(5-chloro-2-{[(5-methyl-2-thienyl)sulfonyl]amino}phenyl)-1-benzofuran-2-sulfonamide] | 96 | 339
Cc1nn(C)c(Cl)c1S(=O)(=O)Nc1ccc(Cl)cc1NS(=O)(=O)c1cc2ccccc2o1 [N-{2-[(1-benzofuran-2-ylsulfonyl)amino]-4-chlorophenyl}-5-chloro-1,3-dimethyl-1H-pyrazole-4-sulfonamide] | 80 | 294
O=S(=O)(Nc1cc(Cl)c(Cl)cc1NS(=O)(=O)c1cccs1)c1ccc(Cl)nc1 [6-chloro-N-{4,5-dichloro-2-[(2-thienylsulfonyl)amino]phenyl}pyridine-3-sulfonamide] | 100 | 281
Cn1ccc(S(=O)(=O)Nc2ccc(Cl)cc2NS(=O)(=O)c2cc3ccccc3o2)n1 [N-{2-[(1-benzofuran-2-ylsulfonyl)amino]-4-chlorophenyl}-1-methyl-1H-pyrazole-3-sulfonamide] | 96 | 185
COC(=O)c1sccc1S(=O)(=O)Nc1ccc(Cl)cc1NS(=O)(=O)c1cc2ccccc2o1 [methyl 3-[({2-[(1-benzofuran-2-ylsulfonyl)amino]-4-chlorophenyl}amino)sulfonyl]thiophene-2-carboxylate] | 96 | 246
O=S(=O)(Nc1cc(Cl)c(Cl)cc1NS(=O)(=O)c1cccc(Cl)c1F)c1cccs1 [N-(4,5-dichloro-2-{[(3-chloro-2-fluorophenyl)sulfonyl]amino}phenyl)thiophene-2-sulfonamide] | 96 | 217
O=S(=O)(Nc1cc(Cl)c(Cl)cc1NS(=O)(=O)c1ccc(Cl)cc1F)c1cccs1 [N-(4,5-dichloro-2-{[(4-chloro-2-fluorophenyl)sulfonyl]amino}phenyl)thiophene-2-sulfonamide] | 94 | 361
O=S(=O)(Nc1cccnc1NS(=O)(=O)c1cccs1)c1ccc(Cl)c(C(F)(F)F)c1 [N-[3-({[4-chloro-3-(trifluoromethyl)phenyl]sulfonyl}amino)pyridin-2-yl]thiophene-2-sulfonamide] | 85 | 349
O=S(=O)(Nc1cc(Cl)c(Cl)cc1NS(=O)(=O)c1cccs1)c1cccc(C(F)(F)F)c1 [N-[4,5-dichloro-2-({[3-(trifluoromethyl)phenyl]sulfonyl}amino)phenyl]thiophene-2-sulfonamide] | 88 | 306
O=S(=O)(Nc1cc(Cl)c(Cl)cc1NS(=O)(=O)c1cccs1)c1cccc(Cl)c1 [N-(4,5-dichloro-2-{[(3-chlorophenyl)sulfonyl]amino}phenyl)thiophene-2-sulfonamide] | 90 | 391
O=S(=O)(Nc1cc(Cl)ccc1NS(=O)(=O)c1cccs1)c1cc2ccccc2o1 [N-{5-chloro-2-[(2-thienylsulfonyl)amino]phenyl}-1-benzofuran-2-sulfonamide] | 86 | 20
O=S(=O)(Nc1cc(Cl)c(Cl)cc1NS(=O)(=O)c1cc2ccccc2s1)c1cccs1 [N-{4,5-dichloro-2-[(2-thienylsulfonyl)amino]phenyl}-1-benzothiophene-2-sulfonamide] | 94 | 494
Cc1cc(S(=O)(=O)Nc2cc(Cl)c(Cl)cc2NS(=O)(=O)c2cccs2)ccc1Br [N-(2-{[(4-bromo-3-methylphenyl)sulfonyl]amino}-4,5-dichlorophenyl)thiophene-2-sulfonamide] | 91 | 471
Cc1n[nH]c(C)c1S(=O)(=O)Nc1ccc(Cl)cc1NS(=O)(=O)c1cc2ccccc2o1 [N-{2-[(1-benzofuran-2-ylsulfonyl)amino]-4-chlorophenyl}-3,5-dimethyl-1H-pyrazole-4-sulfonamide] | 108 | 183
O=S(=O)(Nc1cc(Cl)c(Cl)cc1NS(=O)(=O)c1cccs1)c1ccc(F)cc1 [N-(4,5-dichloro-2-{[(4-fluorophenyl)sulfonyl]amino}phenyl)thiophene-2-sulfonamide] | 91 | 441
O=S(=O)(Nc1ccc(Cl)cc1NS(=O)(=O)c1cccs1)c1cc2ccccc2o1 [N-{4-chloro-2-[(2-thienylsulfonyl)amino]phenyl}-1-benzofuran-2-sulfonamide] | 90 | 145
O=S(=O)(Nc1cc(Cl)ccc1NS(=O)(=O)c1c(Cl)cccc1Cl)c1cc2ccccc2o1 [N-(5-chloro-2-{[(2,6-dichlorophenyl)sulfonyl]amino}phenyl)-1-benzofuran-2-sulfonamide] | 89 | 478
O=S(=O)(Nc1cc(Cl)c(Cl)cc1NS(=O)(=O)c1ccc(F)cc1F)c1cccs1 [N-(4,5-dichloro-2-{[(2,4-difluorophenyl)sulfonyl]amino}phenyl)thiophene-2-sulfonamide] | 89 | 451
O=S(=O)(Nc1cc(Cl)c(Cl)cc1NS(=O)(=O)c1cc(Cl)cc(Cl)c1O)c1cccs1 [N-(4,5-dichloro-2-{[(3,5-dichloro-2-hydroxyphenyl)sulfonyl]amino}phenyl)thiophene-2-sulfonamide] | 82 | 482
O=S(=O)(Nc1cc(Cl)c(Cl)cc1NS(=O)(=O)c1cccs1)c1ccc(F)c(C(F)(F)F)c1 [N-[4,5-dichloro-2-({[4-fluoro-3-(trifluoromethyl)phenyl]sulfonyl}amino)phenyl]thiophene-2-sulfonamide] | 89 | 432
O=S(=O)(Nc1cc(Cl)ccc1NS(=O)(=O)c1c(F)cccc1F)c1cc2ccccc2o1 [N-(5-chloro-2-{[(2,6-difluorophenyl)sulfonyl]amino}phenyl)-1-benzofuran-2-sulfonamide] | 99 | 153
O=S(=O)(Nc1cc(Cl)c(Cl)cc1NS(=O)(=O)c1cccs1)c1cc2ccccc2o1 [N-{4,5-dichloro-2-[(2-thienylsulfonyl)amino]phenyl}-1-benzofuran-2-sulfonamide] | 100 | 96
O=S(=O)(Nc1cc(Cl)c(Cl)cc1NS(=O)(=O)c1ccc(Cl)s1)c1cccs1 [5-chloro-N-{4,5-dichloro-2-[(2-thienylsulfonyl)amino]phenyl}thiophene-2-sulfonamide] | 89 | 263
O=S(=O)(Nc1cc(Cl)c(Cl)cc1NS(=O)(=O)c1ccccc1F)c1cccs1 [N-(4,5-dichloro-2-{[(2-fluorophenyl)sulfonyl]amino}phenyl)thiophene-2-sulfonamide] | 67 | 402
